pIC50: −log10 of the molar value.
Legend:
TrkB receptor = assay: Activation of TrkB receptor: phosphorylation in cortical neurons (WES capillary immunoassay); format: cell-based, mouse
Experimental: On the day of preparation (DIV1) cortical neurons were seeded on poly-D-lysine pre-coated 6-well plates at a density of 1.25*10^6 cells per well and cultured at 37° C.; 95% humidity and 5% CO2 until […] with a half medium exchange on DIV4-6. On DIV10 cells are treated with test item TI (SND118) and control Rh (7,8DHF) at different concentrations for 15 min. The experiment was carried out with n=6 technical replicates per condition, vehicle treated cells served as control. Cells were lysed in 150 μL cold RIPA buffer [50 mM Tris pH 7.4, 1% Nonidet P40, 0.25% Na-deoxy-cholate, 150 mM NaCl, 1 mM EDTA supplemented with freshly added 1 μM NaF, 0.2 mM Na-ortho-vanadate, 80 μM Glycerophosphate, protease (Calbiochem) and phosphatase (Sigma) inhibitor cocktail.
Phosphorylation of the TrkB receptor was detected using the following rabbit anti-Tyr specific antibodies: anti-TrkB Y515, Y706/707 and Y816 and compared with total TrkB detected with anti-TrkB antibody (Abcam). Antibody dilutions and protein amounts were optimized for signal specificity.
Automated separation and immunostaining of total and phospho TrkB was carried out using a capillary-based immunoassay, WES™ (Proteinsimple®). Samples were applied to a 25 capillary cartridge with a 2 to 440 kDa matrix, at an optimized total protein concentration. Sample loading, separation, immunoprobing, washing, detection and quantitative data analysis were performed automatically by WES™ Western system (Compass software V 4.0.0). The areas under the curve were used for the analysis and the phosphorylated versus vehicle or total TrkB signal ratio was calculated and used for statistics.

[1] = test system: organotypic hippocampal brain slices with IAA lesion; assay: Organotypic brain slices, iodoacetic acid injury: cell survival (MTT); format: cell-based, mouse; conditions: SND118 10 and 30 μM; SND124 30 μM; 7,8 DHF 10 μm; IAA 250 μM for 110 min
Experimental: (§1) Preparation of the organotypic brain slices were performed by decapitation of the P9/P10 mouse pups, removing skin and skull and immersing brains in slicing medium (Opti-MEM 1, […]). Brains were hemisected and hippocampi were isolated. Hippocampi were placed on the cutting disc of a McIlwain Tissue Chopper. […] hippocampal slices were chopped transversely. A number of 4 slices per hippocampus were placed on porous (0.4 μM) transparent membrane inserts (Millipore) and incubated for 1 h on ice in HBSS containing 10 mM glucose. Afterwards inserts were transferred to fresh 24-well plates containing 250-300 μl culture medium (50% MEM/EBSS, 25% horse serum, 25% CMF-HBSS, 25 mM glucose, 0.5% pen/strep). Slices were maintained at 37° C. and 5% CO2.
(§2) On DV15, brain slices were pretreated with SND derivatives test compounds and the reference 7,8DHF at various concentrations (between […]) for 30 min, followed by the addition of iodoacetic acid (IAA) at 250 μM for 110 min, when cell survival, MMP and toxicity were measured.
Cell survival was measured by the MTT assay. For the determination of mitochondrial membrane potential, treated organotypic brain slices were loaded with the mitochondrial fluorescent dye, tetramethylrhodamine methyl ester (TMRM) at a final concentration of 100 nM in PBS and incubated for 45 min at 37° C. The TMRM containing solution was aspirated and slices were transferred into new well plates containing the appropriate amount of PBS. Fluorescence was measured with a plate-reader (Cytation 5) using wavelengths of excitation and emission of 548 and 574 nm, respectively (area scan). Values were calculated as percent of control values (vehicle control). Toxicity of the treatment was measured by LDH. No toxicity was observed.

[2] = test system: cortical neurons treated with glutamate; assay: Neuron protection from glutamate injury: mitochondrial membrane potential (rhodamine 123); format: cell-based, rat
Experimental: (§3) Cortices were harvested from E19 rat embryos and dissociated enzymatically and mechanically. Dissociated cells were plated in poly-D-lysine coated imaging plates (384 wells), in 70 μL of neuronal growth medium (Neurocult Neuronal Basal medium+SM1 neuronal supplements+L-glutamine+HEPES). Cells were incubated at 37° C., 5% CO2 and half of the medium was changed twice per week.
For mitochondrial membrane potential measurement (MMP) neurons were cultured 10 to 14 days in vitro, the growth medium was discarded and wells were washed with 50 μL of extracellular saline. Saline was removed and replaced by 25 μL of staining solution (rhodamine 123 in a saline solution containing 1.5 mM Calcium, pyruvate and verapamil). The cells were incubated 30 min at 37° C./5% CO2. 5 μL of a staining solution with or without the test substances at 6× concentrated was added in the wells. […]
Glutamate was prepared 6× concentrated (6 μL on top of the 30 μL) in saline or saline+test compounds 1× concentrated depending on the conditions. […] Basal MMP levels were measured for 1 minute before automated addition of the compounds or controls while recording. MMP signals were further recorded for 30 minutes to 1 hour. […]
Rhodamine 123 is a cationic fluorescent dye that is used to specifically label respiring mitochondria. […] Loss of potential will result in loss of the dye and, therefore, the fluorescence intensity.

MAO-A = target: T1, MAO-A (Homo sapiens, UniProt P21397); assay: In vitro inhibition of monoamine oxidase type A (BioVision MAO-A inhibitor screening kit); format: biochemical; conditions: read-out: IC50 in vitro inhibition of MOA-A enzyme
T1 construct: purchased BioVision K796
T1 sequence (P21397 1-527): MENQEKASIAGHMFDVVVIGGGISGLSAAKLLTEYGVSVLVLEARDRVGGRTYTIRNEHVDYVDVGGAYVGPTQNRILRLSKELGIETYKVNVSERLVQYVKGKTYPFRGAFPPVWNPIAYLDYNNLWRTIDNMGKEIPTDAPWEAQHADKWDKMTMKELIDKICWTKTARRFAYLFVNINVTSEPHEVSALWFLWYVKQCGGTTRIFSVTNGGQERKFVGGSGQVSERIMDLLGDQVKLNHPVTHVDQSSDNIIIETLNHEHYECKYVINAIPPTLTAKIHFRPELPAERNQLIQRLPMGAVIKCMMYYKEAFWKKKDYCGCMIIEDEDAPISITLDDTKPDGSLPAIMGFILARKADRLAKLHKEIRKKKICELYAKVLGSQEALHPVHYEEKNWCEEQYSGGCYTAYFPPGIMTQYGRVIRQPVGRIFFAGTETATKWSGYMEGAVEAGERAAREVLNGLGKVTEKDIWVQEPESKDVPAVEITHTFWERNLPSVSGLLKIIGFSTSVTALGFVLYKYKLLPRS
Experimental: BioVision's MAO-A inhibitor screening kit (BioVision Cat no. K796) was used to assess inhibitory effects of the test items (TIs) on MAO-A in a fluorescent assay.
The assay was carried out according to the provided protocol: TIs were diluted to 10× with MAO-A Assay Buffer before use. 10 μl of test inhibitor (S), working solution of Inhibitor Control (IC; Clorgyline, 1 μM final in the well) and MAO-A Assay Buffer (Enzyme Control; EC) were added into assigned wells. 50 μl of diluted MAO-A Enzyme Solution was added to each well and incubated for 10 min at RT. To check the possible inhibitory effect of TIs on Developer, one well with TI was prepared parallel and incubated with 50 μl of a H2O2 mix instead of the MAO-A Enzyme Solution.
The reaction was started by adding 40 μl of the prepared substrate mix. Measurement of the fluorescence (Ex/Em=535/587 nm) was done kinetically at 25° C. for 10-30 min. Two time points (t1 and t2) in the linear range of the plot were chosen for further calculations (2 min and 6 min). The slope for all Sample Compounds [S], Enzyme Control [EC], Vehicle Control [VC] and Background Control [BC] were calculated by dividing the net ARFU (RFU2-RFU1) values by the time Δt (t2−t1). The slope obtained for the Background Control reaction was subtracted from the [S], [EC] and [VC] values. […]

[3] = test system: organotypic hippocampal brain slices with IAA lesion; assay: Organotypic brain slices, iodoacetic acid injury: mitochondrial membrane potential (TMRM); format: cell-based, mouse; conditions: SND118 10 and 30 μM; SND124 30 μM; IAA 250 μM for 110 min
Experimental: as §1, §2
Cell survival was measured by the MTT assay. […] Fluorescence was measured with a plate-reader (Cytation 5) using wavelengths of excitation and emission of 548 and 574 nm, respectively (area scan). Values were calculated as percent of control values (vehicle control). Toxicity of the treatment was measured by LDH. […]

[4] = test system: cortical neurons treated with glutamate; assay: Neuron protection from glutamate injury: intracellular calcium measurement; format: cell-based, rat
Experimental: as §3
For Calcium measurement, the cells were cultured for 10 to 14 days in vitro, the growth medium was discarded and replaced by 25 μL of a calcium probe in a saline solution (containing 1.5 mM Calcium) for 30 min at 37° C./5% CO2. 5 μL of calcium probe in a saline solution with or without the test substances at 6× concentrated was added in the wells for the pre-treatment step. The wells were further incubated 30 min at 37° C./5% CO2
For calcium measurement, at the end of the pre-treatment, glutamate was prepared at 6× concentrated (6 μL on top of the 30 μL). The final vehicle concentration in all conditions was adjusted. Basal calcium levels was measured for 1 minute before automated addition of the compounds or controls while recording. Intracellular calcium signals was further recorded for 5 to 10 minutes at a sampling rate of around 1 point per second. Each experimental condition was tested in quadruplicate wells.

[5] = test system: primary cultures of cerebral cortical astrocytes; conditions: glutamate 200 μM, positive control; cited from earlier work

SMILES: O=c1cc(-c2ccccc2)oc2c(O)c(O)ccc12 [7,8DHF, 7,8-dihydroxyflavone, reference compound]
- phosphorylation of the TrkB receptor at sites Tyr 515 and Tyr 816 (TrkB receptor; 1 and 2 μM): induced a lower phosphorylation, which did not reach statistical significance
- phosphorylation of TrkB at Tyr residue 706/707 versus the vehicle (TrkB receptor; SND118 2 μM): neither the derivative nor the 7,8DHF reached statistical significance
- cell survival upon IAA lesion (MTT) [1]: no effect

SMILES: C[C@]12N[C@H](Cc3ccccc31)c1ccccc12 [MK801, [(+)-5-methyl-10,11-dihydroxy-5H-dibenzo(a,d)cyclohepten-5,10-imine], reference compound]
- mitochondria potential increased by glutamate (rhodamine 123) ([2]; MK801 10 μM, control compound): restored

SMILES: CCNC(=O)Oc1ccc2c(=O)cc(-c3ccc(CCCC[P+](c4ccccc4)(c4ccccc4)c4ccccc4)cc3)oc2c1OC(=O)NCC.[Br-] [SND124, 4-[4-[7,8-Bis(ethylcarbamoyloxy)-4-oxo-chromen-2-yl]phenyl]-butyltriphenylphosphonium bromide]
- pIC50 (MAO-A): 4.70
- mitochondria function (MMP, TMRM) after IAA lesion [3]: rescued mitochondria function
- cell survival upon IAA lesion (MTT) [1]: statistically increase cell survival

SMILES: COc1c(O)ccc2c(=O)cc(-c3ccc(CCCC[P+](c4ccccc4)(c4ccccc4)c4ccccc4)cc3)oc12.[Br-] [SND135, (4-(4-(7-hydroxy-8-methoxy-4-oxo-4H-chromen-2-yl)phenyl)butyl)triphenylphosphonium bromide]
- mitochondria potential induced by glutamate (rhodamine 123) ([2]; SND135 between 3 and 30 μM, glutamate between 10 and 100 μM): decreases mitochondria potential
- calcium release induced by glutamate ([4]; SND135 30 μM, glutamate 30 μM): decreased
- calcium release induced by glutamate (maximum peak of calcium kinetic) ([4]; SND135 10 and 30 μM, glutamate 10 and 30 μM): decreases calcium release

SMILES: N[C@@H](CCC(=O)O)C(=O)O [glutamate]
- increase of glucose entry [5]: 20 to 30%

From patent US20220411448A1, “CHROMENE-4-ONE DERIVATIVES AS BRAIN-DERIVED NEUROTROPHIC FACTOR (BDNF) MIMETICS” (FLORATEK PHARMA AG, priority 2019, published 2022)
